Consider one molecule from patent US10322177B2, “Activation of immune-related signaling pathways in cells via optofection” (Nant Holdings IP, LLC, priority 2015, dated 2019).

Type in all cases: cell-based, murine
Data set [1] has as its system RAW-Lucia target cells. The experiment in a line: Relative luciferase activity of RAW-Lucia cells after BLAST delivery (FIG. 5). As to conditions: Treatment 2: BLAST, 2.5 uM cGAMP solution; 4 hour and 24 hour. The procedure:
FIG. 5 provides further experimental evidence with respect to the efficiency of cargo delivery to the specific target cells with respect to using a biophotonic laser-assisted surgery tool (BLAST, as described in Nature Methods 12, 439-444 (2015)). The two charts of FIG. 5 show the relative luciferase activity of RAW-Lucia target cells four hours after treatment and 24 hours after treatment under three different treatment configurations.
Treatment configuration 1 represents a control group where the cell population is not treated in order to provide a base line result.
Treatment configuration 2 leverages BLAST where the cell population is bathed in a 2.5 uM cGAMP solution.
Treatment configuration 3 includes co-incubation of the cell populations with a 2.5 uM cGAMP solution. However, the cell population is not exposed to laser stimulation via BLAST.
It should be appreciated that FIG. 5 illustrates the efficacy of a method of inducing an interferon response in specific target cells, including target cells within a heterogeneous cell population. Free cyclic di-nucleotide cargo (i.e., cGAMP in the scenario of FIG. 5) was introduced to the cell population such that the cGAMP remained external to the target cells in a 2.5 uM solution. […]

The subject of a further data set is RAW-Lucia ISG cells. The experiment in a line: RAW-Lucia ISG luciferase reporter, gold nanoparticle optofection of cGAMP (photomicrographs, FIGS. 2A-2C). The source says: FIGS. 2A-2C illustrate experimental evidence indicating the validity of the disclosed techniques though the use of RAW-Lucia® ISG cells that express luciferase when a Type I IFN response pathway is activated (see FIG. 3) by a CDN.
FIG. 2A represents an experiment where gold nanoparticles lacking target cell ligands (here ligand for […]) and cGAMP cargo material are introduced to the cell population. No electro-magnetic stimulation is applied.
FIG. 2B represents an experiment where gold nanoparticles lacking target cell ligands (ligand for CD14) and cGAMP cargo material are introduced to the cell population. In this experiment, the nanoparticles were exposed to 3 mJ pulsed laser. […] The luciferase expression in FIG. 2B is considered to be present in response to random proximity of the gold nanoparticles to cells when the gold nanoparticles are excited by the laser.
FIG. 2C represents an experiment where gold nanoparticles having a CD14 ligand and cGAMP cargo material are both introduced to the cell population. In this case, the nanoparticles attach to the target cells.
The immune response induced in the experiments shown in FIGS. 2A-2C is evidenced by production of luciferase in specifically targeted cells. A mentioned previously, the specifically target cells selected for the experiments were RAW-Lucia™ ISG cells commercially available from InvivoGen® (see URL www.invivogen.com/raw-lucia-isg). The RAW-Lucia cells express luciferase gene (Lucia) through various IFN-stimulated response elements (ISRE) as indicated in FIG. 3. Thus, when an IFN response is stimulated, the cells express the luciferase gene. Of specific note, when CDNs are introduced to the RAW-Lucia cells, the IFN response is activated causing expression of the luciferase gene. Therefore, FIG. 2C clearly provides evidence via substantial luciferase expression that the disclosed technique of causing a cell to uptake CDNs (e.g., cGAMP, etc.) via externally generated poration is capable of inducing an immune response. Such result is not necessarily predictable as laser excitation and concomitant cavitation events may damage or interfere with signal transduction events.
In general terms: In a reporter assay the amount or activity of a reporter protein is the signal.

The test system of data set [2] is RAW-Lucia target cells. The data set is described as follows: Relative luciferase activity of RAW-Lucia cells under treatment configurations (FIG. 4). How it is done: FIG. 4 provides further experimental evidence with respect to the efficiency of cargo delivery to the specific target cells. The two charts show the relative luciferase activity of RAW-Lucia target cells four hours after treatment and 24 hours after treatment under different treatment configurations.
Treatment configuration 1 represents a cell population having no treatment where no nanoparticles and no laser are introduced to the RAW-Lucia cell population.
Treatment configuration 2 represents a cell population treated with CD14 ligand coated gold nanoparticles and a 10 uM cGAMP solution.
Treatment configuration 3 is similar to treatment configuration 2 with the exception that a 1 uM cGAMP solution was introduced to the cell population rather than a 10 uM cGAMP solution.
Treatment configuration 4 includes treating the target cells with just nanoparticles coated with CD14 ligand followed by application of laser stimulation.
Treatment configuration 5 is similar to Treatment 4, although lacking laser stimulation.
Treatment configuration 6 includes treating the cell population with just a 10 uM cGAMP solution without nanoparticles or application of laser stimulation.

Where [3] appears, read: gold nanoparticles having a CD14 ligand plus cGAMP, 2 mJ pulsed laser (FIG. 2C).

Consider `Nc1nc2c(ncn2[C@@H]2O[C@@H]3COP(=O)(O)O[C@H]4[C@@H](O)[C@H](n5cnc6c(N)ncnc65)O[C@@H]4COP(=O)(O)O[C@@H]2[C@@H]3O)c(=O)[nH]1` [cGAMP], for which the relative luciferase activity result in the data set with RAW-Lucia target cells [1] is given as “significant luciferase activity”; in the data set with RAW-Lucia target cells [2] (Treatment 2: CD14 ligand coated gold nanoparticles, 10 uM cGAMP solution, laser, 4 h and 24 h after treatment), “significant luciferase activity”; in the data set on RAW-Lucia target cells [2] (Treatment 3: CD14 ligand coated gold nanoparticles, 1 uM cGAMP solution, laser, 4 h and 24 h after treatment), “fairly similar to Treatment 2”; in the data set on RAW-Lucia target cells [2] (Treatment 6: 10 uM cGAMP solution only, no nanoparticles, no laser), “reduced level of luciferase activity”. Also, the cell viability entry in the data set on RAW-Lucia ISG cells (setting [3]) is on record as “substantially all cells retained viability”. For the same molecule, the luciferase expression entry is listed as “nearly all cells express luciferase” in the data set with RAW-Lucia ISG cells (setting [3]); “some cells express luciferase” in the data set on RAW-Lucia ISG cells (gold nanoparticles lacking target cell ligands plus cGAMP, 3 mJ pulsed laser (FIG. 2B)); “very little or negligible luciferase expression” in the data set on RAW-Lucia ISG cells (gold nanoparticles lacking target cell ligands plus cGAMP, no electro-magnetic stimulation (FIG. 2A)).
